Positions count from the first letter of the chain named.
Key:
[1] = biological target: T1, UGT1A8 (Homo sapiens, UniProt Q9HAW9); test: Glucuronidation assay, UGT1A8-overexpressing HEK293 cell homogenate; format: in vitro ADME
T1 sequence (Q9HAW9 26-530): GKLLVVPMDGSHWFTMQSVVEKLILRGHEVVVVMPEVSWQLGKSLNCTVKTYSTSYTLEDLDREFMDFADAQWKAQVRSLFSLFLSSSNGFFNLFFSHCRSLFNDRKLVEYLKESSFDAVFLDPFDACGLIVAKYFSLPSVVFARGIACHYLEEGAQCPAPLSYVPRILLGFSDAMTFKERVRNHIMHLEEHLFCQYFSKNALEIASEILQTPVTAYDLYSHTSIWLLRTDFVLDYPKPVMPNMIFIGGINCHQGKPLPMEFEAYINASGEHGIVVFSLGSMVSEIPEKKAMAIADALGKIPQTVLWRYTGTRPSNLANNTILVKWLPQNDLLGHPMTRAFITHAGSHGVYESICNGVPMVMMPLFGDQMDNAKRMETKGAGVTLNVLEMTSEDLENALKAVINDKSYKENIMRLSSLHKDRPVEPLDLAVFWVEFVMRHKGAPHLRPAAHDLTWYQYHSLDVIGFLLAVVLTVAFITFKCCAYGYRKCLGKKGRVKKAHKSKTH

[2] = biological target: T2, UGT2B17 (Homo sapiens, UniProt O75795); format: in vitro ADME
T2 sequence (O75795 24-530): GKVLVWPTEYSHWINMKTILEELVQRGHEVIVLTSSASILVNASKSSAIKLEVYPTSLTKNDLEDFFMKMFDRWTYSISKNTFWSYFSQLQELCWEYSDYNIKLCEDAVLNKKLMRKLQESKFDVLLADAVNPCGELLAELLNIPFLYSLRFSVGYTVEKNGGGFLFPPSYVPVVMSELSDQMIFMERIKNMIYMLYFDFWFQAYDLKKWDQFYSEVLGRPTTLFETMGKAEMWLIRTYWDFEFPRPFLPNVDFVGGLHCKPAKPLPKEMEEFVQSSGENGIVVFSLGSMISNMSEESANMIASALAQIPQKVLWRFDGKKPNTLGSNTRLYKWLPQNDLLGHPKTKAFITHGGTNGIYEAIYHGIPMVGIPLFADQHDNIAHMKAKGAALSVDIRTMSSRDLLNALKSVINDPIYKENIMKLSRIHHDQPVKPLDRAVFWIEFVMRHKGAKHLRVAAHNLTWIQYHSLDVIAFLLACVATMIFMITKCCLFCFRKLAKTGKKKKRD

[3] = biological target: T3, UGT1A4^24Pro/48Leu (Homo sapiens, UniProt P22310); test: Glucuronidation assay, UGT1A4 24Pro/48Leu-overexpressing HEK293 cell homogenate; format: in vitro ADME
T3 sequence (P22310 29-534): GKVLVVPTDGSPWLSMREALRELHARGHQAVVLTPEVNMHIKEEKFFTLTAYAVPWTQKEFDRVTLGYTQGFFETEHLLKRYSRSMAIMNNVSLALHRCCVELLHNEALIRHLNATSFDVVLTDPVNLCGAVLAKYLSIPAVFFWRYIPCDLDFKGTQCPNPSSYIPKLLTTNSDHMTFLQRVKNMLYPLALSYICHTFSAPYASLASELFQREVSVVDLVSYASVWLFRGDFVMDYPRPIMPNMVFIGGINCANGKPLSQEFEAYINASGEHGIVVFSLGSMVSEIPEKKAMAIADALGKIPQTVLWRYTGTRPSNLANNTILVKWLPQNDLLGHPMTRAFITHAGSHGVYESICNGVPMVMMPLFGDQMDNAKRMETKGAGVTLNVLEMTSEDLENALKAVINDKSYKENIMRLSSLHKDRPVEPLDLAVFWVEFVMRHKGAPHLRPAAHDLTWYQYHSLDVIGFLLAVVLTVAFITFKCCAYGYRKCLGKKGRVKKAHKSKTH

[4] = biological target: T4, UGT1A4^24Thr/48Leu (Homo sapiens, UniProt P22310); test: Glucuronidation assay, UGT1A4 24Thr/48Leu-overexpressing HEK293 cell homogenate; format: in vitro ADME
T4 sequence (P22310 29-534): T3 sequence (P22310 29-534)

[5] = biological target: T5, UGT1A4^24Pro/48Val (Homo sapiens, UniProt P22310, L48V); format: in vitro ADME
T5 sequence (P22310 29-534 L48V): T3 sequence (P22310 29-534) with L20V

[6] = test system: UGTs 1A1, 1A3, 1A6, 1A7, 1A9, 2B4, 2B7, 2B10, 2B11, 2B15; format: in vitro ADME, human; settings: other UGTs screened; up to 1 mg of UGT-overexpressing cell homogenate
[7] = individuals taking exemestane; cited from earlier work
[8] = human; cited from earlier work

| Structure (SMILES) | Km [1] [µM] | Vmax ([1]; normalized per μg UGT protein) [pmol/min/μg UGT protein] | glucuronidation activity in UGT screen ([1]; up to 600 μmol/l substrate) | Km [2] [µM] | Vmax ([2]; normalized per μg UGT protein) [pmol/min/μg UGT protein] | glucuronidation activity in UGT screen ([2]; up to 600 μmol/l substrate) | Km ([3]; UGT1A4 24Pro/48Leu) [µM] | Vmax ([3]; UGT1A4 24Pro/48Leu, normalized per μg UGT protein) [pmol/min/μg UGT protein] | glucuronidation activity in UGT screen ([3]; UGT1A4, up to 600 μmol/l substrate) | Km [4] [µM] | Vmax ([4]; normalized per μg UGT protein) [pmol/min/μg UGT protein] | Km [5] [µM] | Vmax ([5]; normalized per μg UGT protein) [pmol/min/μg UGT protein] | glucuronidation activity in UGT screen [6] | plasma level as share of parent exemestane [7] | excreted as parent compound [8] [%] | fecal excretion [8] | urinary excretion [8] |
| --- | --- | --- | --- | --- | --- | --- | --- | --- | --- | --- | --- | --- | --- | --- | --- | --- | --- | --- |
| C=C1C[C@H]2[C@@H]3CC[C@H](O)[C@@]3(C)CC[C@@H]2[C@@]2(C)C=CC(=O)C=C12 [17-dihydroexemestane] | 14 ± 3.9 | 0.30 ± 0.06 | detectable activity | 15 ± 2.7 | 2.0 ± 0.25 | detectable activity | 34 ± 3.9 | 0.27 ± 0.01 | detectable activity | 28 ± 7.8 | 0.26 ± 0.04 | 36 ± 5.4 | 0.40 ± 0.03 | None of the other UGTs screened in our assays exhibited any glucuronidation activity | 35–40% |  |  |  |
| C=C1C[C@@H]2[C@H](CC[C@]3(C)C(=O)CC[C@@H]23)[C@@]2(C)C=CC(=O)C=C12 [exemestane, 6-methylenandrosta-1,4-diene-3,17-dione] |  |  |  |  |  |  |  |  |  |  |  |  |  |  |  | 1 | around 42% | around 42% |
